The record followed here is the NIST ThermoML archive (doi:10.1016/j.jct.2012.01.001).

± gives the expanded uncertainty stated by the source.

This series can be described thus: Molar enthalpy of transition or fusion. To be noted: Crystal; DSC.
Turning to `Oc1cccc2ccccc12` [1-naphthol], the “Molar enthalpy of transition or fusion” value turned out to be 21.6 ± 0.65 kJ/mol.

Take `Oc1ccc2ccccc2c1` [2-hydroxynaphthalene]: the “Molar enthalpy of transition or fusion” value turned out to be 21.1 ± 0.63 kJ/mol.

With `COc1cc(C=O)ccc1O` [vanillin], the “Molar enthalpy of transition or fusion” value is 22.4 ± 0.67 kJ/mol.
